Source: article PMC6465078 (Molecular pharmaceutics, 2018)
Structures can show the parent of a compound that is named as a salt. Values belong to the compound of their own block, whether it stands above or below them.

Columns and labels:
OSTα/β [1] = molecular target: T1, OSTα/β (Homo sapiens, UniProt Q86UW1); assay: Inhibition of OSTα/β-mediated DHEAS uptake in OSTα/β-overexpressing Flp-In 293; assay type: cell-based; details: for Maximal inhibition of OSTα/β-mediated DHEAS uptake: Method 1, up to 200 µM inhibitor; for Inhibition of OSTα/β-mediated DHEAS uptake (screening): Method 1 (10 min preincubation), test compound 100 µM; for Inhibition of OSTα/β-mediated DHEAS uptake: inhibitor 100 µM, DHEAS 20 µM
T1 sequence (Q86UW1 1-340): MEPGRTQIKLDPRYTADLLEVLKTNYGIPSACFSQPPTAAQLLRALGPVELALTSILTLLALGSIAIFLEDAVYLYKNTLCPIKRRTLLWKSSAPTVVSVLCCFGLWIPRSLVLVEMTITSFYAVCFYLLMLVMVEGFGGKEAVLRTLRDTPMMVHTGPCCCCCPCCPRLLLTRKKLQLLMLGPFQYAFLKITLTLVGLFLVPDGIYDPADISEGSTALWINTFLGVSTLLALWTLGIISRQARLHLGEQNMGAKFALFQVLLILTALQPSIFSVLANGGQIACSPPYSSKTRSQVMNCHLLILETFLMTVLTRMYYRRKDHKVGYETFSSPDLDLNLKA
T1 sequence (Q86UW2 1-128 partner): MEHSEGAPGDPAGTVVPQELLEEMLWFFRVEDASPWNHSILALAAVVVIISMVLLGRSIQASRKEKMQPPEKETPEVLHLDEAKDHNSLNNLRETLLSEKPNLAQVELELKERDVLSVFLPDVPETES

[2] = cited from earlier work
OSTα/β [3] = molecular target: T1, OSTα/β; assay: Inhibition of OSTα/β-mediated taurocholate; assay type: cell-based; details: for Inhibition of OSTα/β-mediated TCA uptake (statistical significance): Methods 1-3, method not specified; for inhibition at 100 µM: read-out: Inhibition of OSTα/β-mediated TCA uptake
OSTα/β [4] = details: single concentration of 100–1000 μM; cited from earlier work
OSTα/β [5] = details: cited from earlier work
ABCB11 = details: cited from earlier work
ABCC3 = details: cited from earlier work
OSTα/β [6] = molecular target: T1, OSTα/β; assay: Inhibition of OSTα/β-mediated digoxin uptake in OSTab cells; assay type: cell-based; details: read-out: Inhibition of OSTα/β-mediated digoxin uptake
OSTα/β [7] = molecular target: T1, OSTα/β; details: cell line ectopically expressing human OSTα/β; cited from earlier work
[8] = Concentration in hepatocyte cultures; assay type: in vitro ADME; details: equivalent of ~700 ng/mg protein
[9] = cited from earlier work; remark: listed apart in the source
ABCC4 = details: cited from earlier work
[10] = Flp-In-293, read-out: Inhibition of OSTα/β-mediated DHEAS uptake (screening)
[11] = Flp-In-293, read-out: Inhibition of OSTα/β-mediated DHEAS uptake
[12] = Method 2 (co-incubation only), 30 s uptake

- inhibition at 100 µM (OSTα/β [1]; [10]): 35 to 64%
- Maximal inhibition of OSTα/β-mediated DHEAS uptake (OSTα/β [1]; DHEAS 4 µM): less than 50%
SMILES: C#C[C@]1(OC(C)=O)CC[C@H]2[C@@H]3CCC4=CC(=NO)CC[C@@H]4[C@H]3CC[C@@]21CC (mixture of isomers) [norgestimate]
- Associated cases of DILI [2]: more than 100 cases

- Inhibition of OSTα/β-mediated DHEAS uptake (screening) (OSTα/β [1]; DHEAS 4 µM, 30 s uptake): decreased
SMILES: CC1(C)S[C@@H]2[C@H](NC(=O)[C@H](N)c3ccc(O)cc3)C(=O)N2[C@H]1C(=O)O [amoxicillin]
- Associated cases of DILI [2]: more than 100 cases

- inhibition at 100 µM (OSTα/β [1]; [10]): ~19%
SMILES: C[C@H]1c2cccc(O)c2C(=O)C2=C(O)[C@]3(O)C(=O)C(C(N)=O)=C(O)[C@@H](N(C)C)[C@@H]3[C@@H](O)[C@@H]21 [doxycycline]

- Inhibition of OSTα/β-mediated DHEAS uptake (screening) (OSTα/β [1]; DHEAS 4 µM, 30 s uptake): could not be reproduced
SMILES: O=C1[C@H](CC[C@H](O)c2ccc(F)cc2)[C@@H](c2ccc(O)cc2)N1c1ccc(F)cc1 [ezetimibe]

- inhibition at 100 µM (OSTα/β [1]; [10]): 71%
- Inhibition of OSTα/β-mediated DHEAS uptake (OSTα/β [1]; Method 1 (10 min preincubation only), 30 s uptake): inhibited DHEAS uptake
- Inhibition of OSTα/β-mediated TCA uptake (OSTα/β [3]; Method 2 (co-incubation only), inhibitor 100 µM, TCA 20 µM, 30 s uptake): > 70%
- inhibition at 100 µM (OSTα/β [3]): > 70%
- inhibition at 100 µM (OSTα/β [6]): 90%
SMILES: CCc1c(Cl)c(O)c(Cl)c(O)c1C(=O)O[C@H]1[C@H](O)[C@H](OC)[C@H](OC/C2=C\C=C\C[C@H](O)/C(C)=C/[C@H](CC)[C@@H](O[C@@H]3OC(C)(C)[C@@H](OC(=O)C(C)C)[C@H](O)[C@@H]3O)/C(C)=C/C(C)=C/C[C@@H]([C@@H](C)O)OC2=O)O[C@@H]1C [fidaxomicin]
- Inhibition of OSTα/β-mediated TCA transport (OSTα/β [7]): inhibited
- Inhibition of ABCC3 (ABCC3): inhibit

- inhibition at 100 µM (OSTα/β [1]; [11]): ~20%
- inhibition at 100 µM (OSTα/β [1]; [10]): 5 to 23%
- Inhibition of OSTα/β-mediated DHEAS uptake (OSTα/β [1]; [12]): no inhibition
- Inhibition of OSTα/β-mediated TCA uptake (statistical significance) (OSTα/β [3]; inhibitor 100 µM, TCA 20 µM): did not reach statistical significance
SMILES: COc1ccc2c(c1)c(CC(=O)O)c(C)n2C(=O)c1ccc(Cl)cc1 [indomethacin]

- inhibition at 100 µM (OSTα/β [1]; [10]): 5 to 23%
SMILES: CCCN(CCC)S(=O)(=O)c1ccc(C(=O)O)cc1 [probenecid]

- Inhibition of OSTα/β-mediated DHEAS uptake (screening) (OSTα/β [1]; DHEAS 4 µM, 30 s uptake): did not inhibit OSTα/β
SMILES: CC(C)c1nc(N(C)S(C)(=O)=O)nc(-c2ccc(F)cc2)c1/C=C/[C@@H](O)C[C@@H](O)CC(=O)O [rosuvastatin]

- inhibition at 100 µM (OSTα/β [1]; [11]): ~20%
- Inhibition of OSTα/β-mediated DHEAS uptake (OSTα/β [1]; [12]): no inhibition
- inhibition at 100 µM (OSTα/β [3]): ~20%
SMILES: CC(=O)S[C@@H]1CC2=CC(=O)CC[C@]2(C)[C@H]2CC[C@@]3(C)[C@@H](CC[C@@]34CCC(=O)O4)[C@H]12 [spironolactone]
- Inhibition of OSTα/β-mediated TCA and ES uptake (OSTα/β [4]): inhibited

- Concentration in hepatocyte cultures, molar equivalent [8]: ~ 190 µM
SMILES: Cc1c(C)c2c(c(C)c1OS(=O)(=O)O)CCC(C)(COc1ccc(CC3SC(=O)NC3=O)cc1)O2 (centres unmarked) [troglitazone sulfate]
- Inhibition of OSTα/β-mediated TCA transport (OSTα/β [7]): inhibited
- Concentration in hepatocyte cultures [9]: ~ 700 ng/mg protein
- Inhibition of ABCB11 (ABCB11): inhibits
- Inhibition of ABCC4 (ABCC4): inhibits

Further lines, the compound ahead of its results:

SMILES: C[C@H](CCC(=O)NCCS(=O)(=O)O)[C@H]1CC[C@H]2[C@@H]3CC[C@@H]4C[C@H](OS(=O)(=O)O)CC[C@]4(C)[C@H]3CC[C@]12C [TLCAS, taurolithocholic acid sulfate]
- Stimulation of OSTα/β-mediated TCA uptake (OSTα/β [3]; Method 2 (co-incubation only), 100 µM, TCA 20 µM): ~ 25%
- Inhibition of OSTα/β-mediated TCA uptake (statistical significance) (OSTα/β [3]; inhibitor 100 µM, TCA 20 µM): did not reach statistical significance
- Inhibition of OSTα/β-mediated TCA and ES uptake (OSTα/β [4]): inhibited

SMILES: O=C(O)[C@H]1/C(=C/CO)O[C@@H]2CC(=O)N21 [clavulanic acid]
- Inhibition of OSTα/β-mediated DHEAS uptake (screening) (OSTα/β [1]; DHEAS 4 µM, 30 s uptake): decreased
- Associated cases of DILI [2]: more than 100 cases

SMILES: CC(C)/N=c1\cc2n(-c3ccc(Cl)cc3)c3ccccc3nc-2cc1Nc1ccc(Cl)cc1 [clofazimine]
- OSTα/β inhibitor identification in screen of 1,280 FDA-approved drugs (OSTα/β [5]): OSTα/β inhibitor

SMILES: C[C@H]1O[C@@H](O[C@H]2[C@@H](O)C[C@H](O[C@H]3[C@@H](O)C[C@H](O[C@H]4CC[C@@]5(C)[C@H](CC[C@@H]6[C@@H]5C[C@@H](O)[C@]5(C)[C@@H](C7=CC(=O)OC7)CC[C@]65O)C4)O[C@@H]3C)O[C@@H]2C)C[C@H](O)[C@@H]1O [digoxin]
- inhibition at 100 µM (OSTα/β [1]; [10]): 5 to 23%

SMILES: C#C[C@]1(O)CC[C@H]2[C@@H]3CCc4cc(O)ccc4[C@H]3CC[C@@]21C [ethinylestradiol]
- Associated cases of DILI [2]: more than 100 cases
- Interaction with ABCB11 (ABCB11; ref Supporting Table 1): interact
- Interaction with ABCC3 (ABCC3; ref Supporting Table 1): interact

SMILES: C[C@H](CCC(=O)NCC(=O)O)[C@H]1CC[C@H]2[C@@H]3[C@H](O)C[C@@H]4C[C@H](O)CC[C@]4(C)[C@H]3CC[C@]12C [glycochenodeoxycholate]
- Maximal inhibition of OSTα/β-mediated DHEAS uptake (OSTα/β [1]; DHEAS 4 µM): less than 50%

SMILES: CC[C@H](C)C(=O)O[C@H]1C[C@@H](C)C=C2C=C[C@H](C)[C@H](CC[C@@H]3C[C@@H](O)CC(=O)O3)[C@H]21 [lovastatin]
- inhibition at 100 µM (OSTα/β [1]; [10]): ~21%

SMILES: O=C1OC(c2ccc(O)c(S(=O)(=O)O)c2)(c2ccc(O)c(S(=O)(=O)O)c2)c2c(Br)c(Br)c(Br)c(Br)c21 [sulfobromophthalein]
- inhibition at 100 µM (OSTα/β [1]; [10]): 5 to 23%

SMILES: Cc1c(C)c2c(c(C)c1O)CCC(C)(COc1ccc(CC3SC(=O)NC3=O)cc1)O2 (centres unmarked) [troglitazone]
- Inhibition of OSTα/β-mediated DHEAS uptake (screening) (OSTα/β [1]; DHEAS 4 µM, 30 s uptake): novel OSTα/β inhibitors
- IC50 for inhibition of OSTα/β-mediated DHEAS uptake (OSTα/β [1]; Method 1, 0.125–200 µM inhibitor, DHEAS 4 µM, 30 s uptake): did not yield a consistent inhibition curve
